Values quoted from earlier work in US9289389B2, “Method for producing matrix-type pharmaceutical solid preparation” (OTSUKA PHARMACEUTICAL CO., LTD., priority 2007, dated 2016).

Conditions: water 20° C.

Compound | amount of water necessary to dissolve 1 g [g]
OC[C@H]1O[C@H](O[C@H]2O[C@H](CO)[C@@H](O)[C@H](O)[C@H]2O)[C@H](O)[C@@H](O)[C@@H]1O [trehalose dihydrate] | 1.2
OC[C@@H](O)[C@H](O)[C@@H](O)CO [xylitol] | 1.6
OC[C@@H](O)[C@@H](O[C@@H]1O[C@H](CO)[C@H](O)[C@H](O)[C@H]1O)[C@H](O)[C@@H](O)CO [lactitol] | 1.8
OC[C@H]1O[C@H](O[C@H]2[C@H](O)[C@@H](O)C(O)O[C@@H]2CO)[C@H](O)[C@@H](O)[C@@H]1O (mixture of isomers) [maltose monohydrate] | 1.2

Same assay, conditions: water 25° C.

Compound | amount of water necessary to dissolve 1 g
OC[C@@H](O)[C@@H](O)CO [erythritol] | 3.3 g
OC[C@@H](O)[C@@H](O)[C@H](O)[C@@H](O)CO [sorbitol] | 0.5 mL (g)

Same assay, conditions: water temperature not stated

Compound | amount of water necessary to dissolve 1 g of sugar and/or sugar alcohol
OC[C@H]1O[C@@](CO)(O[C@H]2O[C@H](CO)[C@@H](O)[C@H](O)[C@H]2O)[C@@H](O)[C@@H]1O [sucrose] | 0.5 g
OC[C@@H](O)[C@@H](O[C@H]1O[C@H](CO)[C@@H](O)[C@H](O)[C@H]1O)[C@H](O)[C@@H](O)CO [maltitol] | easily soluble
O=C(CO)[C@@H](O)[C@H](O)[C@H](O)CO [fructose] | 0.3 g
